Where two headings read alike, the source gives them in different places.
What was measured:
TYK2-JH2 domain = molecular target: T1, TYK2-JH2 domain (Homo sapiens, UniProt P29597); experiment: Binding activity test for JH2 domain of TYK2 (Tb-antibody/tracer FRET); conditions: for IC50: JH2 domain enzyme, 60 min at 25°C, then 4°C overnight, read-out: TYK2 JH2 Binding IC50; for JAK1/TYK2 selectivity: ratio of JAK1 JH2 to TYK2 JH2 binding IC50
T1 construct: JAK1-JH2 domain or TYK2-JH2 domain enzyme in assay buffer
Procedure, shortened: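 Competitive TR-FRET binding: compounds dispensed as an 11-point 3-fold dilution series, then Tb-labelled antibody and tracer added to the JH2 protein system. Incubated at 25°C, then overnight at 4°C; FRET signal read on Envision and IC50 (nM) derived.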

JAK1-JH2 domain = molecular target: T2, JAK1-JH2 domain (Homo sapiens, UniProt P23458); experiment: Binding activity test for JH2 domain of JAK1 (Tb-antibody/tracer FRET); conditions: JH2 domain enzyme; 60 min at 25°C, then 4°C overnight; read-out: JAK1 JH2 Binding IC50
T2 construct: JAK1-JH2 domain or TYK2-JH2 domain enzyme in assay buffer
Experimental: Binding Activity test for JH2 domain of JAK1 and TYK2 […] Add 8μL/well in echo source plate, echo will add 75nL/well with 3-fold serial dilution for 11 points in assay plate. 75nL DMSO for high control and low control. […] For low control, add 5μL/well assay buffer. And then spin down at 1000rpm and centrifuge for 30 seconds. After enzyme system prepared, add 5μL of Tb-antibody solution into each well of assay plate. Spin down at 1000 rpm and centrifuge for 30sec. After Tb-antibody added, also add 5μL of tracer into the assay plate. Spin down at 1000rpm and centrifuge for 30sec. Incubate for […] at 25°C firstly and then continue to incubate the plate at 4°C overnight. Read by envision in FRET mode. The Luminescence value was recorded by a multi-label reader Envision (PerkinElmer). […] Table 2. IC50 on JH2 domain activity (nM)

[1] = tested on: Ba/F3-FL-TYK2-P760L cells; experiment: Anti-proliferative assay in engineered Ba/F3 cells (Cell-Titer Glo, 72 h); assay type: cell-based; conditions: 72 h compound treatment, concentration that causes 50% growth inhibition, read-out: Baf3-FL-T2P760L
Procedure, shortened: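 Ba/F3 cells carrying Tel-dimerization/JAK kinase fusion, IL-3-independent, in RPMI-1640 + 10% FBS; 9-point 3-fold dilutions from 20 µM (0.1% DMSO) added after 24 h, 72 h at 37 °C. Viability by Cell-Titer Glo ATP luminescence; % inhibition versus DMSO cells, blank-corrected, giving IC50.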

T2 sequence (P23458 583-855 limits assumed): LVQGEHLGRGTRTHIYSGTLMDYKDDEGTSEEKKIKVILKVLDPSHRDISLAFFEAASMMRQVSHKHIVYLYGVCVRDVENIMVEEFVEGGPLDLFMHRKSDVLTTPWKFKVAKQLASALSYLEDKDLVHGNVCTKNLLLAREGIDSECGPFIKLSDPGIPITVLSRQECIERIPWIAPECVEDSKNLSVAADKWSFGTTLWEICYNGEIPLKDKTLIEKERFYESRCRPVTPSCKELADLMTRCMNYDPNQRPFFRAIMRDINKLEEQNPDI
T1 sequence (P29597 589-875 limits assumed): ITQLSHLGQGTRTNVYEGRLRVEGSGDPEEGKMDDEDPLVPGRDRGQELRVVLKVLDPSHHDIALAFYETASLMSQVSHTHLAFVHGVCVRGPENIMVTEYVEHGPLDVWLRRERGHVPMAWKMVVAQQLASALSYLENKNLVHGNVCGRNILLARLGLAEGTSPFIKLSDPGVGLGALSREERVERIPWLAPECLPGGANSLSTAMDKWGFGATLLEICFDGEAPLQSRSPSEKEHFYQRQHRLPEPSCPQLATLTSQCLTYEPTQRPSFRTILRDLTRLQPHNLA

Structure (SMILES)	IC50 (TYK2-JH2 domain)	JAK1/TYK2 selectivity (TYK2-JH2 domain)	IC50 (JAK1-JH2 domain)	IC50 [1]	IC50 ([1]; Mus musculus, BaF3, 72 h)
[2H]C([2H])([2H])NC(=O)c1cnc(NC(=O)[C@@H]2C[C@@H]2F)cc1Nc1cnn2ccc(C(O)C(F)(F)F)c(OC)c12 (single isomer, unassigned) [Example 15B, 6-((1S,2S)-2-fluorocyclopropane-1-carboxamido)-4-((4-methoxy-5-((R*)-2,2,2-trifluoro-1-hydroxyethyl)pyrazolo[1,5-a]pyridin-3-yl)amino)-N-(methyl-d3)nicotinamide]	0.375 nM	53.3	20 nM	870 nM	
[2H]C([2H])([2H])NC(=O)c1cnc(NC(=O)C2CC23CC3)cc1Nc1cnn2ccc([C@H](O)C(F)(F)F)c(OC)c12 (single isomer, unassigned) [Example 32B, 4-((4-Methoxy-5-((S)-2,2,2-trifluoro-1-hydroxyethyl)pyrazolo[1,5-a]pyridin-3-yl)amino)-N-(methyl-d3)-6-((R*)-spiro[2.2]pentane-1-carboxamido)nicotinamide]	0.108 nM	106.2	11.5 nM	27.3 nM	
[2H]C([2H])([2H])CC(=O)c1cnc(NC(=O)C2CC2)cc1Nc1nn(C)c2ccc(C(OC)C(F)(F)F)c(OC)c12 (single isomer, unassigned) [Example 65A, (R*)-N-(4-((4-methoxy-1-methyl-5-(2,2,2-trifluoro-1-methoxyethyl)-1H-indazol-3-yl)amino)-5-(propanoyl-3,3,3-d3)pyridin-2-yl)cyclopropanecarboxamide]	0.54 nM	>553.80	> 298 nM	117 nM	
[2H]C([2H])([2H])CC(=O)c1cnc(NC(=O)C2CC2)cc1Nc1nn(C)c2ccc(C(OC)C(F)(F)F)c(OC)c12 (single isomer, unassigned) [Example 65B, (S*)-N-(4-((4-methoxy-1-methyl-5-(2,2,2-trifluoro-1-methoxyethyl)-1H-indazol-3-yl)amino)-5-(propanoyl-3,3,3-d3)pyridin-2-yl)cyclopropanecarboxamide]	0.09 nM	144.84	12.5 nM	2.1 nM	
[2H]C([2H])([2H])NC(=O)c1nnc(NC(=O)C2CC23CC3)cc1Nc1cnn2ccc([C@H](O)C(F)(F)F)c(OC)c12 (single isomer, unassigned) [Example 82A, 4-((4-Methoxy-5-((S)-2,2,2-trifluoro-1-hydroxyethyl)pyrazolo[1,5-a]pyridin-3-yl)amino)-N-(methyl-d3)-6-((R*)-spiro[2.2]pentane-1-carboxamido)pyridazine-3-carboxamide]	0.21 nM	38.29	7.96 nM		35 nM
[2H]C([2H])([2H])NC(=O)c1nnc(NC(=O)C2CC23CC3)cc1Nc1cnn2ccc([C@H](O)C(F)(F)F)c(OC)c12 (single isomer, unassigned) [Example 82B, 4-((4-Methoxy-5-((S)-2,2,2-trifluoro-1-hydroxyethyl)pyrazolo[1,5-a]pyridin-3-yl)amino)-N-(methyl-d3)-6-((S*)-spiro[2.2]pentane-1-carboxamido)pyridazine-3-carboxamide]	0.23 nM	27.48	6.32 nM	27 nM	
CCOC(c1ccc2c(c(Nc3cc(NC(=O)C4CC4)ncc3C(=O)OC)nn2C)c1OC)C(F)(F)F (single isomer, unassigned) [Example 106B, Methyl (S*)-6-(cyclopropanecarboxamido)-4-((5-(1-ethoxy-2,2,2-trifluoroethyl)-4-methoxy-1-methyl-1H-indazol-3-yl)amino)nicotinate]	0.21 nM	75.19	15.8 nM		5.49 nM
CNC(=O)c1nnc(NC(=O)C2CC2)cc1Nc1cn(C)c2cccc(OC)c12 [Example 1, 6-(Cyclopropanecarboxamido)-4-((4-methoxy-1-methyl-1H-indol-3-yl)amino)-N-methylpyridazine-3-carboxamide]	2.33 nM	8.4	19.5 nM		1170 nM
[2H]C([2H])([2H])NC(=O)c1cnc(NC(=O)C2CC2)cc1Nc1cnn2ccc(C(=O)OC)c(OC)c12 [Example 6, Methyl 3-((2-(cyclopropanecarboxamido)-5-((methyl-d3)carbamoyl)pyridin-4-yl)amino)-4-methoxypyrazolo[1,5-a]pyridine-5-carboxylate]	0.482 nM	15.4	7.45 nM		146 nM
[2H]C([2H])([2H])NC(=O)c1cnc(NC(=O)C2CC2)cc1Nc1cnn2ccc(C(F)(F)F)c(OC)c12 [Example 10, 6-(Cyclopropanecarboxamido)-4-((4-methoxy-5-(trifluoromethyl)pyrazolo[1,5-a]pyridin-3-yl)amino)-N-(methyl-d3)nicotinamide]	0.224 nM	43.3	9.71 nM		120 nM
[2H]C([2H])([2H])NC(=O)c1cnc(NC(=O)[C@@H]2C[C@@H]2F)cc1Nc1cnn2ccc(C(F)(F)F)c(OC)c12 [Example 11, 6-((1S,2S)-2-fluorocyclopropane-1-carboxamido)-4-((4-methoxy-5-(trifluoromethyl)pyrazolo[1,5-a]pyridin-3-yl)amino)-N-(methyl-d3)nicotinamide]	0.182 nM	96.5	17.6 nM		54.5 nM
[2H]C([2H])([2H])NC(=O)c1cnc(NC(=O)C2CC2)cc1Nc1cnn2ccc(COC)c(OC)c12 [Example 16, 6-(Cyclopropanecarboxamido)-4-((4-methoxy-5-(methoxymethyl)pyrazolo[1,5-a]pyridin-3-yl)amino)-N-(methyl-d3)nicotinamide]	0.22 nM	64.0	14.1 nM		87 nM
[2H]C([2H])([2H])NC(=O)c1cnc(NC(=O)C2CC2)cc1Nc1cnn2ccc([C@H](OC([2H])([2H])[2H])C(F)(F)F)c(OC)c12 [Example 28, (S)-6-(cyclopropanecarboxamido)-4-((4-methoxy-5-(2,2,2-trifluoro-1-(methoxy-d3)ethyl)pyrazolo[1,5-a]pyridin-3-yl)amino)-N-(methyl-d3)nicotinamide]	0.073 nM	102.5	7.48 nM		10.7 nM
[2H]C([2H])([2H])NC(=O)c1cnc(NC(=O)C2CC2)cc1Nc1cnn2ccc(C(C)(C)O)c(C)c12 [Example 34, 6-(Cyclopropanecarboxamido)-4-((5-(2-hydroxypropan-2-yl)-4-methylpyrazolo[1,5-a]pyridin-3-yl)amino)-N-(methyl-d3)nicotinamide]	161 nM	>1.85	> 298 nM		> 5000 nM
[2H]C([2H])([2H])NC(=O)c1cnc(NC(=O)[C@@H]2C[C@@H]2F)cc1Nc1cnn2cnc(OC)c(OC)c12 [Example 36, 4-((4,5-Dimethoxypyrazolo[1,5-c]pyrimidin-3-yl)amino)-6-((1S,2S)-2-fluorocyclopropane-1-carboxamido)-N-(methyl-d3)nicotinamide]	4.55 nM	56.0	255 nM		1770 nM

Source: patent EP4813463A2, “TYK2 INHIBITORS AND COMPOSITIONS AND METHODS THEREOF” (Lynk Pharmaceuticals Co. Ltd., priority 2023, dated 2024)
